Consider 13 molecules from ChEMBL document CHEMBL1128798, “The in vitro cytotoxicity and DNA alkylating ability of the simplest functional analogues of the seco CC-1065 alkylating subunit” (Bioorg Med Chem Lett, 1995).

One test relates to MM96L. The experiment in a line: Tested in vitro for cytotoxicity against MM96L cell line in human melanoma. It is filed as functional.
In the next test the test system is HeLa. The experiment in a line: Tested in vitro for cytotoxicity against He La cell line in human cervical carcinoma. Format: functional.
The test system of the next test is CI80-13S cell line. Kind of test: Tested in vitro for cytotoxicity against CI80-13S cell line in DNA cross-linking resistant human ovarian carcinoma. Format: functional.
A further test deals with MM418. Kind of test: Tested in vitro for cytotoxicity against MM418c15a cell line in human melanoma with high melanin content. Format: functional.
The next test relates to Nucleic Acid. The experiment in a line: Compound was tested in vitro for DNA alkylation intensity; value is given as. It is filed as functional.
The subject of test [1] is B16. Kind of test: Tested in vitro for cytotoxicity against B16 cell line in murine melanoma. Format: functional, Mus musculus.
The subject of test [2] is B16. The experiment in a line: Tested in vitro for cytotoxicity against B16 cell line in murine melanoma activity expressed in IC50. Format: functional, cell-based. The settings on record: Mus musculus.

As for `Oc1cccc(CCCl)c1`, the Cytotoxicity with MM96L and with HeLa was 450 µM in each case.
Regarding `OCCc1cccc(O)c1`, the Cytotoxicity in the test with MM96L was 2530 µM; with HeLa, 7530 µM.
With `Oc1cccc(CCI)c1`, the Cytotoxicity is 20 µM in the test on MM96L and 19 µM with HeLa.
`CS(C)(=O)=O` [DIMETHYL SULFONE]: the Cytotoxicity with CI80-13S cell line was 59 µM; with MM418, 58 µM; in the test with MM96L, 56 µM; with HeLa, 35 µM.
In the case of `Oc1ccc(CCCl)cc1`, the values for the Cytotoxicity in the test on MM96L and in the test with HeLa were 42 µM and 32 µM, respectively.
With `COc1ccc(CCO)cc1`, the Cytotoxicity with MM96L was determined as 3330 µM; in the test on HeLa, 4420 µM.
For `COc1ccc(CCCl)cc1`, in that order: 1970 µM and 670 µM.
For `COc1ccc(CCBr)cc1`, in that order: 520 µM and 220 µM.
`Oc1ccc(CCI)cc1`: the Cytotoxicity in the test on MM96L was 43 µM; in the test with HeLa, 33 µM. The DNA alkylation entry with Nucleic Acid is on record as “value is given as”.
Consider `Oc1cccc(CCBr)c1`, for which the figures for the Cytotoxicity in the test on MM96L and in the test with HeLa were 60 µM and 75 µM, respectively.
In the case of `COc1ccc(CCI)cc1`, the Cytotoxicity stood at 25 µM in the test on MM96L and 22 µM with HeLa.
Take `Oc1ccc(CCBr)cc1`: the Cytotoxicity with CI80-13S cell line was determined as 27 µM; in the test with MM418, 25 µM; with MM96L it was 16 µM; in the test on B16 [1] it was 44 µM; in the test with HeLa, 18 µM. Moreover, the IC50 in the test on B16 [2] stood at 32 µM. Besides, the DNA alkylation entry in the test on Nucleic Acid is given as “value is given as”.
As for `OCCc1ccc(O)cc1` [TYROSOL], the Cytotoxicity stood at 905 µM with MM96L and 1420 µM in the test with HeLa.

In general, IC50 refers to the point on the concentration scale where inhibition reaches its midpoint. A low value points to inhibition by little substance.
